A word on the pEC50: it is the negative decadic logarithm of the EC50, by convention in mol/L. Low values mean a large EC50, high ones a small EC50.

In ChEMBL document CHEMBL5257032, “Therapeutic potential of coumarins as antiviral agents” (Eur J Med Chem, 2016) one finds EC50 data, which are given here for one compound.

pEC50: −log10 of the molar value.

For this assay, the system named is Influenza A virus. As to the kind of experiment: Antiviral activity against Oseltamivir-resistant Influenza A virus. Format: functional, organism-based.

`Cc1cc(=O)oc2c1ccc1oc(C(=O)c3ccccc3)c(-c3ccccc3)c12`: the pEC50 is 7.68.
